Assay results published in patent US20260337228A1, “COMPOSITION AND METHOD FOR TREATING NEONATAL HYPOXIC-ISCHEMIC ENCEPHALOPATHY” (SUZHOU GLENKOL PHARMA TECHNOLOGY CO., LTD., priority 2023, published 2026).

Assays:
[1] = test system: cerebral cortical neural cells; assay: Lactate dehydrogenase (LDH) cytotoxicity assay after oxygen-glucose deprivation; format: cell-based, neonatal rat; conditions: 2 mM NaP, positive control; 24 hours after injury; vs untreated oxygen-glucose deprivation group, p<0.05
Description: Culture of cerebral cortical neural cells: The brains of neonatal rats were dissected, the meninges removed, and the cerebral cortex isolated. The cortical tissues were digested with papain, single cells collected, and plated onto lysine-treated coverslips and cultured in Neurobasal™ serum-free medium. To mimic hypoxic-ischemic encephalopathy injury in vitro, the Neurobasal medium was replaced with DMEM medium at 7 days in vitro (DIV7), and cells were cultured under 21% O2/5% CO2 for 2.5 hours to serve as the control group, or Neurobasal medium replaced with glucose-free DMEM medium and cells cultured under 0% O2/5% CO2 for 2.5 hours to serve as the oxygen-glucose deprivation treatment group. After treatment, both groups were returned to Neurobasal medium and cultured normally under 21% O2/5% CO2 for 24 hours. […]
Lactate dehydrogenase (LDH) kit cytotoxicity assay: After 24 hours of normal culture, collect the cell culture supernatant from each group, add the LDH assay working solution, mix thoroughly, and incubate at room temperature in the dark for 30 minutes. Then, measure the absorbance at 490 nm and calculate the LDH release level, which indicates cytotoxicity. […]

[2] = test system: cerebral cortical neural cells; assay: MTT assay for cell viability after oxygen-glucose deprivation; format: cell-based, neonatal rat; conditions: 2 mM NaP, positive control; 24 hours after injury; vs untreated oxygen-glucose deprivation group, p<0.05
Description: Culture of cerebral cortical neural cells: The brains of neonatal rats were dissected, the meninges removed, and the cerebral cortex isolated. The cortical tissues were digested with papain, single cells collected, and plated onto lysine-treated coverslips and cultured in Neurobasal™ serum-free medium. To mimic hypoxic-ischemic encephalopathy injury in vitro, the Neurobasal medium was replaced with DMEM medium at 7 days in vitro (DIV7), and cells were cultured under 21% O2/5% CO2 for 2.5 hours to serve as the control group, or Neurobasal medium replaced with glucose-free DMEM medium and cells cultured under 0% O2/5% CO2 for 2.5 hours to serve as the oxygen-glucose deprivation treatment group. After treatment, both groups were returned to Neurobasal medium and cultured normally under 21% O2/5% CO2 for 24 hours.
S1 Pretreatment: At the start of the oxygen-glucose deprivation treatment, cells were simultaneously treated with S1 (final concentrations of 0.01 μM, 0.1 μM, 1 μM, or 10 μM), or with the scrambled peptide Tat-NRRRNSKLQHKKY (SEQ ID NO: 10), or with NaP (Davunetide) as a control.
MTT assay for cell viability: After 24 hours of normal culture, MTT solution was added to each group and cultured for an additional 4 hours. […] Then, measure the absorbance at 490 nm and calculate the MTT formation level, which indicates cell viability. […]

## CC[C@H](C)[C@H](NC(=O)[C@H](CO)NC(=O)[C@@H](NC(=O)[C@@H]1CCCN1C(=O)[C@H](C)NC(=O)[C@@H](N)CC(N)=O)C(C)C)C(=O)N1CCC[C@H]1C(=O)N[C@@H](CCC(N)=O)C(=O)O [NaP, Davunetide]
[1]
  LDH release levels: significantly reduced LDH release levels
[2]
  MTT formation levels: significantly increased MTT formation levels
